# Read-outs that look alike come from different tables or passages of the source.
# Legend:
# exploratory activity = assay: Inhibitory effect on exploratory activity (Animex activity meter); assay type: in vivo, mice (Std-ddy strain); conditions: oral, 2 h after administration, 3 min counting; dose not given
# Procedure: A group of 5 male mice (Std-ddy strain, 20-25 g) was used. Two hours after oral administration of the test compound, mice were placed individually in a test box (23×35×30 cm) on Animex activity meter (Farad Co.). Immediately thereafter, activity counting was started and lasted for three minutes. The mean counts of the compound-treated group were compared with those of the corresponding control (non-dosed) group, and the percent inhibition was calculated.
# serotonin (S2) receptor = target: T1, serotonin (S2) receptor (Rattus norvegicus, UniProt P14842); assay: In vitro binding to serotonin (S2) receptor, [3H] ketanserin; design: species or system rats; conditions: [3H] ketanserin, rat brain crude synaptosome fraction
# T1 construct: Crude synaptosome fractions were prepared from some brain regions in rats for receptor sources; from tissue
# Procedure: (§1) Dopamine (D2), serotonin (S1, S2) and adrenaline (α1) receptor binding assays were carried out according to the methods of I. Creese et al. [Eur. J. Pharmacol., 46, 377 (1977), S. J. Peroutka et al. [Mol. Pharmacol. 16, 687 (1979)], J. E. Leysen et al. [Mol. Pharmacol., 21, 301 (1982)] and D. C. U'Prichard et al. [Mol. Pharmacol., 13, 454 (1977)], respectively.
# (§2) Crude synaptosome fractions were prepared from some brain regions in rats for receptor sources. Radioactive ligands used were [^3 H] spiperone (D2), [^3 H] serotonin (S1), [^3 H] ketanserin (S2) and [^3 H] WB-4101 (α1). The binding assay was performed by incubating aliquots of synaptosome fraction in buffer solution (final volume: 1 ml) containing a [^3 H] labelled ligand and a test compound. The assay was terminated by rapid filtration through Whatman GF/B glass fiber filters attached to a cell-harvester (Brandel) and radioactivity on the filters was counted in a Packard Triscarb scintillation counter. Specific binding was calculated as a difference between amounts of radioactivity in the presence and absence of an unlabelled ligand [spiperone (D2), serotonin (S1), methysergide (S2) and prazosin (α1)]. The IC50 value of the test compounds (concentration causing 50% inhibition of [^3 H] ligand specific binding) was determined by probit analysis.
# dopamine (D2) receptor = target: T2, dopamine (D2) receptor (Rattus norvegicus, UniProt P61169); assay: In vitro binding to dopamine (D2) receptor, [3H] spiperone; design: species or system rats; conditions: [3H] spiperone, rat brain crude synaptosome fraction; read-out: IC50 D2
# T2 construct: Crude synaptosome fractions were prepared from some brain regions in rats for receptor sources; from tissue
# Procedure: as §1, §2
# adrenaline (α1) receptor = assay: In vitro binding to adrenaline (α1) receptor, [3H] WB-4101; design: species or system rats; conditions: [3H] WB-4101, rat brain crude synaptosome fraction
# Procedure: as §1, §2
# [1] = tested on: apomorphine-induced vomiting; assay: Antagonistic effect on apomorphine-induced vomiting; assay type: in vivo, dogs (Beagle); conditions: Canis lupus familiaris, sc, apomorphine 0.3 mg/kg s.c. 2 h after compound, read-out: Inhibitory ratio (apomorphine-induced vomiting)
# Procedure: A group of 3-4 dogs (Beagle, 8-15 kg) was used for examining effects on the test compounds on apomorphine-induced vomiting, a known test for evaluating neuroleptic drugs.
# Each dog was given a subcutaneous injection of apomorphine hydrochloride (0.3 mg/kg) two hours after the treatment of the test compounds. Then, the frequency of oral vomiting was counted for one hour. The mean counts of the compound-treated group were compared with those of the corresponding control (non-dosed) group, and the percent inhibition was calculated.
# [2] = tested on: brain monoamine metabolites; assay: Increasing effect on concentration of brain monoamine metabolites; assay type: in vivo, mice (Std-ddy strain); conditions: Mus musculus, 2 h, non-dosed=100
# Procedure: A group of 5 male mice (Std-ddy strain, 25-30 g) was used for examining effect of the test compounds on concentration of brain monoamine metabolites.
# Mice were killed by decapitation 2 hours after treatment with the test compounds. Brains were quickly taken out, homogenized in 1N formic acid-acetone solution, and centrifuged in a refrigerated ultracentrifuge. The supernatant was evaporated by blowing with N2 gas. Then, the residue was again resolved in 0.01 N acetic acid, and served for determining concentration of dopamine metabolites, 3,4-dihydroxyphenylacetic acid (DOPAC) and homovanillic acid (HVA), a norepinephrine metabolite, 3-methyl-4-hydroxyphenylethylene glycol (MOPEG), and a serotonin metabolite, 5-hydroxyindole-3-acetic acid (5-HIAA) concentrations by HPLC with electrochemical detection. The effect of the test compounds on concentration of each monoamine metabolite is shown as % of control (level of non-dosed animals=100) in Table 4.
# [3] = read-out: 5-HIAA concentration, % of control
# [4] = read-out: DOPAC concentration, % of control
# [5] = read-out: HVA concentration, % of control
# T1 sequence (P14842 whole entry): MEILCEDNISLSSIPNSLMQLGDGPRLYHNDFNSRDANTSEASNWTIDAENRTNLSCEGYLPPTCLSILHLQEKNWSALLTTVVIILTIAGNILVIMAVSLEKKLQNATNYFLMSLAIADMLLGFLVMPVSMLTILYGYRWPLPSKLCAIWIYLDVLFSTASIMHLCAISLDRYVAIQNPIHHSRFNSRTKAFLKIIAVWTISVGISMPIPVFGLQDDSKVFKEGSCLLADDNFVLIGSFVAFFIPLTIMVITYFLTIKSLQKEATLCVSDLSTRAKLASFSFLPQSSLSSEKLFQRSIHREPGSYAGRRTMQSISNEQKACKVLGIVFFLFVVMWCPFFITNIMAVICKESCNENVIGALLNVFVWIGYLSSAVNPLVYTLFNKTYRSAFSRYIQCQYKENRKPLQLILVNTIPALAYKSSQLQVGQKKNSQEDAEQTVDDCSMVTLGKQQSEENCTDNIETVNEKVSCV
# T2 sequence (P61169 whole entry): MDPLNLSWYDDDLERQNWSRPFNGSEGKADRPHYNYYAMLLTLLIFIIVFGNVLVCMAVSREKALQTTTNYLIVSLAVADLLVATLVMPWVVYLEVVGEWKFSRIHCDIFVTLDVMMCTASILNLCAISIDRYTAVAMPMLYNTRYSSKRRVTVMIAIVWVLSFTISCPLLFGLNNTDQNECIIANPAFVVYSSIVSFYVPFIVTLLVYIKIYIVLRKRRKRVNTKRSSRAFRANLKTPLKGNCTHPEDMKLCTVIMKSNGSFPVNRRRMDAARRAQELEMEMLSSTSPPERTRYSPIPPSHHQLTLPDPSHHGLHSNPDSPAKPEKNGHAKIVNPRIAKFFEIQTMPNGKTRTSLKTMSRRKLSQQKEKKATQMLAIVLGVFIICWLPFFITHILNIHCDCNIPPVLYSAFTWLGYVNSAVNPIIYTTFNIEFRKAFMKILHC
smiles,measurement,setting,value
"CCN1CCN(c2cc(-c3ccc(F)cc3F)c3c(n2)CCCCCC3)CC1 [Example 2a, 2-(4-ethyl-1-piperazinyl)-4-(2,4-difluorophenyl)-5,6,7,8,9,10-hexahydrocycloocta[b] pyridine]",Inhibitory ratio (exploratory activity),exploratory activity,77.5%
same,IC50,serotonin (S2) receptor,28 nM
same,IC50,dopamine (D2) receptor,24 nM
same,IC50,adrenaline (α1) receptor,88 nM
"OCCN1CCN(c2cc(-c3ccc(F)cc3)c3c(n2)CCC3)CC1 [Example 7, 2-[4-(2-Hydroxyethyl)-1-piperazinyl]-4-(4-fluoro-phenyl)-6,7-dihydro-5H-1-pyrindine]",IC50,serotonin (S2) receptor,9.5 nM
same,inhibition in vivo at 1 mg/kg,[1],80%
same,IC50,dopamine (D2) receptor,30 nM
CCN1CCN(c2cc(-c3ccc(Cl)cc3)c3c(n2)CCCCC3)CC1 [Example 31],Inhibitory ratio (exploratory activity),exploratory activity,62.5%
CCN1CCN(c2cc(-c3ccccc3)c3c(n2)CCCCCC3)CC1 [Example 36],Inhibitory ratio (exploratory activity),exploratory activity,68.4%
same,inhibition in vivo at 0.5 mg/kg,[1],81%
Fc1ccc(-c2cc(N3CCN(C4CCCC4)CC3)nc3c2CCCCCC3)cc1 [Example 38],Inhibitory ratio (exploratory activity),exploratory activity,58.9%
OCCN1CCN(c2cc(-c3ccc(F)cc3F)c3c(n2)CCCCCC3)CC1 [Example 53],Inhibitory ratio (exploratory activity),exploratory activity,68.1%
CCN1CCN(c2cc(-c3ccccc3)c3c(n2)CCC(C)C3)CC1 (stereo not drawn) [Example 57],Inhibitory ratio (exploratory activity),exploratory activity,77.2%
CCN1CCN(c2cc(-c3ccccc3)c3c(n2)C2CCC3C2)CC1 (stereo not drawn) [Example 71],Inhibitory ratio (exploratory activity),exploratory activity,61.9%
same,IC50,serotonin (S2) receptor,14 nM
same,inhibition in vivo at 3 mg/kg,[1],84%
same,IC50,dopamine (D2) receptor,25 nM
same,IC50,adrenaline (α1) receptor,13 nM
CCN1CCN(c2cc(-c3ccc(F)cc3)c3c(n2)C2CCC3C2)CC1 (stereo not drawn) [Example 73],IC50,serotonin (S2) receptor,2.4 nM
same,inhibition in vivo at 1 mg/kg,[1],100%
same,IC50,dopamine (D2) receptor,18 nM
same,IC50,adrenaline (α1) receptor,4.6 nM
CCN1CCN(c2cc(-c3ccc(F)cc3)c3c(n2)C2CCC3CC2)CC1 [Example 75],Inhibitory ratio (exploratory activity),exploratory activity,78.9%
"CC1CN(c2cc(-c3ccc(F)cc3)c3c(n2)CCCCCC3)CCN1 (stereo not drawn) [Example 83, 2-(3-Methyl-1-piperazinyl)-4-(4-fluorophenyl)-5,6,7,8,9,10-hexahydrocycloocta[b]pyridine]",Inhibitory ratio (exploratory activity),exploratory activity,53.5%
c1ccc(-c2cc(N3CCNCC3)nc3c2CCCCCC3)cc1 [Example 103],IC50,serotonin (S2) receptor,41 nM
same,IC50,dopamine (D2) receptor,140 nM
Fc1ccc(-c2cc(N3CCNCC3)nc3c2CCCCCC3)c(F)c1 [Example 106],Inhibitory ratio (exploratory activity),exploratory activity,74.9%
c1ccc(-c2cc(N3CCNCC3)nc3c2C2CCC3C2)cc1 (stereo not drawn) [Example 107],Inhibitory ratio (exploratory activity),exploratory activity,53.2%
"CN1CCN(c2cc(-c3ccc(F)cc3)c3c(n2)CCC3)CC1 [Example 111, 2-(4-methyl-1-piperazinyl)-4-(4-fluorophenyl)-6,7-dihydro-5H-1-pyrindine]",Inhibitory ratio (exploratory activity),exploratory activity,74.0%
"CN1CCN(c2cc(-c3ccc(F)cc3)c3c(n2)CCCCCC3)CC1.O=C(O)/C=C\C(=O)O.O=C(O)/C=C\C(=O)O [Example 112, 2-(4-Methyl-1-piperazinyl)-4-(4-fluorophenyl)-5,6,7,8,9,10-hexahydrocycloocta[b]pyridine dimaleate]",Inhibitory ratio (exploratory activity),exploratory activity,73.2%
same,inhibition in vivo at 0.2 mg/kg,[1],94%
"CN1CCN(c2cc(-c3ccc(F)cc3F)c3c(n2)CCCCCC3)CC1 [Example 114, 2-(4-Methyl-1-piperazinyl)-4-(2,4-difluorophenyl)-5,6,7,8,9,10-hexahydrocycloocta[b]pyridine]",Inhibitory ratio (exploratory activity),exploratory activity,81.9%
same,inhibition in vivo at 0.2 mg/kg,[1],89%
"CCCN1CCN(c2cc(-c3ccc(F)cc3)c3c(n2)CCCCCC3)CC1 [Example 118, 2-(4-n-propyl-1-piperazinyl)-4-(4-fluorophenyl)-5,6,7,8,9,10-hexahydrocycloocta[b]pyridine]",inhibition in vivo at 0.3 mg/kg,[1]; dose 0.3 mg/kg,94%
same,response vs control in vivo at 3 mg/kg,[2]; [3],110%
same,response vs control in vivo at 3 mg/kg,[2]; [4],302%
same,response vs control in vivo at 3 mg/kg,[2]; [5],250%
same,response vs control in vivo at 3 mg/kg,"[2]; read-out: MOPEG concentration, % of control",129%
CC(C)N1CCN(c2cc(-c3ccc(F)cc3)c3c(n2)CCCCCC3)CC1 [Example 121],inhibition in vivo at 0.5 mg/kg,[1],93%
same,response vs control in vivo at 10 mg/kg,[2]; [3],111%
same,response vs control in vivo at 10 mg/kg,[2]; [4],312%
same,response vs control in vivo at 10 mg/kg,[2]; [5],215%
"CCCCN1CCN(c2cc(-c3ccc(F)cc3)c3c(n2)CCCCCC3)CC1 [Example 122, 2-(4-n-Butyl-1-piperazinyl)-4-(4-fluorophenyl)-5,6,7,8,9,10-hexahydrocycloocta[b]pyridine]",Inhibitory ratio (exploratory activity),exploratory activity,81.3%
same,inhibition in vivo at 0.5 mg/kg,[1],100%
same,response vs control in vivo at 2 mg/kg,[2]; [3],100%
same,response vs control in vivo at 2 mg/kg,[2]; [4],306%
same,response vs control in vivo at 2 mg/kg,[2]; [5],229%
"CCCCCN1CCN(c2cc(-c3ccc(F)cc3)c3c(n2)CCCCCC3)CC1 [Example 123, 2-(4-n-Pentyl-1-piperazinyl)-4-(4-fluorophenyl)-5,6,7,8,9,10-hexahydrocycloocta[b]pyridine]",Inhibitory ratio (exploratory activity),exploratory activity,72.2%
C=CCN1CCN(c2cc(-c3ccc(F)cc3)c3c(n2)CCCCCC3)CC1 [Example 125],Inhibitory ratio (exploratory activity),exploratory activity,57.9%
"CCCN1CCN(c2cc(-c3ccc(F)cc3F)c3c(n2)CCCCCC3)CC1 [Example 127, 2-(4-n-propyl-1-piperazinyl)-4-(2,4-difluorophenyl)-5,6,7,8,9,10-hexahydrocycloocta[b]pyridine]",Inhibitory ratio (exploratory activity),exploratory activity,80.3%
"COc1ccc(-c2cc(N3CCN(c4ccccc4)CC3)nc(C)c2-c2ccc(OC)cc2)cc1 [Test Compound B, 4,5-Bis-(4-methoxyphenyl)-6-methyl-2-(4-phenylpiperazino)pyridine, reference compound]",inhibition in vivo at 3 mg/kg,[1],13%
same,IC50,dopamine (D2) receptor,> 10000 nM
"Cc1nc(N2CCN(c3ccccc3)CC2)cc(-c2ccc(O)cc2)c1-c1ccc(O)cc1 [Test Compound C, 4,5-Bis-(4-hydroxyphenyl)-6-methyl-2-(4-phenylpiperazino)pyridine, reference compound]",inhibition in vivo at 3 mg/kg,[1],16%
same,IC50,dopamine (D2) receptor,> 10000 nM
